Laboratory results: PMC9668928, “Zandelisib (ME-401) in Japanese patients with relapsed or refractory indolent non-Hodgkin’s lymphoma: an open-label, multicenter, dose-escalation phase 1 study” (International Journal of Hematology, 2022)
Values joined by “and” are separate entries in the source; they are usually repeats but may differ in a detail not shown here. Equal values may be shown once. “Also recorded” adds a separate entry of the source. Marks after values point to notes of the source that are not given here.

Key:
[1] = Phase 1 study: plasma pharmacokinetics, non-compartmental analysis; assay type: in vivo, human; conditions: for pre-dose concentration, mean ± SD: 60 mg daily; for median tmax: after single and multiple doses
Text: The primary endpoint was the safety [number of patients with treatment-emergent adverse events (TEAEs), based on Common Terminology Criteria for Adverse Events version 5.0] and tolerability (including laboratory values, vital signs, and electrocardiogram performance) of zandelisib in Japanese patients. Hepatobiliary disorder, aspartate/alanine (AST/ALT) increased, diarrhea/colitis, organizing pneumonia, stomatitis, or rash were defined as irAEs in this manuscript. Secondary endpoints included PK (plasma concentrations and PK parameters) and the efficacy of zandelisib. Blood samples for PK evaluation were collected at pre-dose, 1.5, 3, 5, 8, 10, 12 (optional), and 24 h post-dose on Cycle 1 day 1 and Cycle 2 day 1, and at pre-dose on Cycle 1 days 8, 15, and 22. The PK parameters for Cycle 1 day 1 and Cycle 2 day 1 were calculated for each patient by non-compartmental analysis. PK parameters included maximum plasma drug concentration (Cmax), area under the plasma concentration–time curve (AUC) from time zero to the last measurable point (AUC0–t), the AUC from time zero to infinity (AUC0-inf), and terminal half-life (t1/2).

[2] = system: relapsed/refractory indolent non-Hodgkin's lymphoma (R/R iNHL); assay: Phase 1 study: anti-tumor efficacy, investigator-assessed, modified Lugano criteria; assay type: in vivo, human
Protocol: Efficacy endpoints included ORR; duration of response (DOR); progression-free survival (PFS); time to first response (TTR); and change in tumor size from baseline. Response was assessed by investigators based on the modified Lugano Classification lymphoma response criteria (modified Lugano criteria). If complete response (CR) was achieved by CT- or MRI-based assessment (not including bone marrow biopsy), PET/CT was performed to assess metabolic response (except for patients whose FDG-avidity was “non-avid” in the screening test). Additionally, a bone marrow biopsy was also performed if complete metabolic response was confirmed by PET/CT-based assessment. For efficacy outcomes, the Clopper–Pearson method was used to obtain 95% confidence intervals (CIs) for ORR. The Kaplan–Meier method was used to estimate the DOR and PFS for each cohort and overall. Statistical analyses were performed using SAS® software version 9.4 (SAS Institute Inc., Cary, NC, USA).

PI3Kδ signaling pathway = system: PI3Kδ signaling pathway; parameters: method as in PMID 21378270, PMID 21803855, PMID 20959606, PMID 31506873; conditions: read-out: half maximal inhibitory concentration [IC50]; cited from earlier work
PI3Kδ = system: PI3Kδ; parameters: method as in PMID 21378270, PMID 21803855, PMID 20959606, PMID 31506873; conditions: cited from earlier work
basophil activation = system: basophil activation; parameters: method as in PMID 30458930; conditions: 60 mg/day; cited from earlier work
[3] = system: patients with B-cell malignancies; conditions: phase 1b; cited from earlier work
[4] = N = 9, median follow-up 17.5 months

With `CN1CCC(c2ccccc2CC(C)(C)Nc2nc(N3CCOCC3)nc(-n3c(C(F)F)nc4ccccc43)n2)CC1` [zandelisib] the “AUC0–inf, mean ± SD” value ([1]; 45 mg, Cycle 1 day 1, n = 2) was 479 ± 112^c ng h/mL, the “t1/2, mean ± SD” value ([1]; 45 mg, Cycle 1 day 1, n = 2) was 12.5 ± 0.8^c h and the “AUC0–t (24 h), mean ± SD” value ([1]; 45 mg, Cycle 1 day 1, n = 3) was 304 ± 90 ng·h/mL. The “Cmax, mean ± SD” value ([1]; 45 mg, Cycle 1 day 1, n = 3) was 27.5 ± 11.0 ng/mL, the “tmax, median (min–max)” value ([1]; 45 mg, Cycle 1 day 1, n = 3) was 3.00 (2.88–9.53) h and the “t1/2, mean ± SD” value ([1]; 45 mg, Cycle 2 day 1, n = 2) was 32.5 ± 10.3^c h. For the same molecule, the “AUC0–t (24 h), mean ± SD” value ([1]; 45 mg, Cycle 2 day 1, n = 3) was 601 ± 171 ng·h/mL, the “Cmax, mean ± SD” value ([1]; 45 mg, Cycle 2 day 1, n = 3) was 46.4 ± 6.2 ng/mL and the “tmax, median (min–max)” value ([1]; 45 mg, Cycle 2 day 1, n = 3) was 3.08 (2.95–7.98) h. For the same molecule, the “pre-dose concentration, mean ± SD” value ([1]; Cycle 1 Day 8) was 25.2 ± 8.2 ng/mL, the “pre-dose concentration, mean ± SD” value ([1]; Cycle 1 Day 15) was 26.1 ± 9.6 ng/mL and the “pre-dose concentration, mean ± SD” value ([1]; Cycle 1 Day 22) was 28.2 ± 9.5 ng/mL. For the same molecule, the “pre-dose concentration, mean ± SD” value ([1]; Cycle 2 Day 1) was 26.2 ± 13.1 ng/mL, the “AUC0–inf, mean ± SD” value ([1]; 60 mg, Cycle 1 day 1, n = 6) was 731 ± 331 ng·h/mL and the “AUC0–t (24 h), mean ± SD” value ([1]; 60 mg, Cycle 1 day 1, n = 6) was 435 ± 161 ng·h/mL. For the same molecule, the “Cmax, mean ± SD” value ([1]; 60 mg, Cycle 1 day 1, n = 6) was 36.6 ± 13.2 ng/mL, the “t1/2, mean ± SD” value ([1]; 60 mg, Cycle 1 day 1, n = 6) was 16.4 ± 3.9 h and the “tmax, median (min–max)” value ([1]; 60 mg, Cycle 1 day 1, n = 6) was 3.94 (3.00–7.83) h. For the same molecule, the “t1/2, mean ± SD” value ([1]; 60 mg, Cycle 2 day 1, n = 5) was 23.5 ± 10.9^d h, the “AUC0–t (24 h), mean ± SD” value ([1]; 60 mg, Cycle 2 day 1, n = 6) was 974 ± 339 ng·h/mL and the “Cmax, mean ± SD” value ([1]; 60 mg, Cycle 2 day 1, n = 6) was 62.8 ± 19.4 ng/mL. The “tmax, median (min–max)” value ([1]; 60 mg, Cycle 2 day 1, n = 6) was 4.96 (2.83–8.00) h, the “dose proportionality of exposure (Cmax and AUC)” value ([1]; 45 and 60 mg) was “generally dose proportional up to 60 mg/day” and the “exposures (Cmax and AUC) on Cycle 2 Day 1 versus Cycle 1 Day 1” value ([1]; 45 and 60 mg) was 1.5–2 fold. The median tmax ([1]; 45 mg) was 3 h, the median tmax ([1]; 60 mg) was ~ 4.96 h and the “time to PK steady state” value ([1]; daily dosing) was “PK reached steady state by Day 8; also recorded: reached steady state following 7 days of dosing”. For the same molecule, the “median PFS” value ([2]; 45 mg group) was 11.1 months, the “Best overall response: Complete response” value ([2]; 45 mg, n = 3) was 0 (0.0) n (%) and the “Best overall response: Partial response” value ([2]; 45 mg, n = 3) was 3 (100.0) n (%). The “Best overall response: Progressive disease” value ([2]; 45 mg, n = 3) was 0 n (%), the “Best overall response: Stable disease” value ([2]; 45 mg, n = 3) was 0 n (%) and the “Objective response rate, % (95% CI)” value ([2]; 45 mg, n = 3) was 100.0 (29.2–100.0) %. The “median DOR” value ([2]; 60 mg group) was 11.3 months, the “median PFS” value ([2]; 60 mg group) was 13.3 months and the “Best overall response: Complete response” value ([2]; 60 mg, n = 6) was 2 (33.3) n (%). For the same molecule, the “Best overall response: Partial response” value ([2]; 60 mg, n = 6) was 4 (66.7) n (%), the “Best overall response: Progressive disease” value ([2]; 60 mg, n = 6) was 0 n (%) and the “Best overall response: Stable disease” value ([2]; 60 mg, n = 6) was 0 n (%). The “Objective response rate, % (95% CI)” value ([2]; 60 mg, n = 6) was 100.0 (54.1–100.0) %, the “median duration of response (DOR)” value [2, 4] was 7.9 months and 7.9 (95% CI 2.8–14.7) months and the “median progression-free survival (PFS)” value [2, 4] was 11.1 months and 11.1 (95% CI 4.6–16.7) months. The “median time to response (TTR)” value [2, 4] was 1.9 months and 1.9 (95% CI 1.8–2.1) months, the “complete response (CR) rate” value ([2]; N = 9, 2 FL patients receiving 60 mg/day) was 22.2% and 22% and the “Best overall response: Complete response” value ([2]; Total, N = 9) was 2 (22.2) n (%). The “Best overall response: Partial response” value ([2]; Total, N = 9) was 7 (77.8) n (%), the “Best overall response: Progressive disease” value ([2]; Total, N = 9) was 0 n (%) and the “Best overall response: Stable disease” value ([2]; Total, N = 9) was 0 n (%). For the same molecule, the “Objective response rate, % (95% CI)” value ([2]; Total, N = 9) was 100.0 (66.4–100.0) %, the “patients achieved response at week 8” value ([2]; after 2 administration cycles) was 8/9 and the “decrease from baseline in the sum of perpendicular diameters” value ([2]; all patients, N = 9) was > 50%. For the same molecule, the “best overall response of partial response (PR)” value ([2]; cohort 1, 45 mg) was 3/3, the “best overall response of CR” value ([2]; cohort 2, 60 mg) was 2/6 and the “best overall response of PR” value ([2]; cohort 2, 60 mg) was 4/6. For the same molecule, the “patients regained response after switching back from IDT to CS” value ([2]; of patients switched back to CS after PD) was 2/4, the IC50 (PI3Kδ signaling pathway) was 0.6 nM and the target binding (PI3Kδ) was > 5 h. For the same molecule, the “target inhibition at trough plasma concentrations” value (basophil activation) was ≥ 90%, the “dose-limiting toxicities (DLTs)” value [3] was “No dose-limiting toxicities (DLTs) were reported” and the “maximum tolerated dose (MTD)” value [3] was “not reached”. For the same molecule, the “objective response rate (ORR)” value [3] was 79% and the “recommended phase 2 dose (RP2D)” value [3] was 60 mg/day.
